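Compound exposure: 48 hours, 5 concentrations, 96-well plates. Definition used: TGI = concentration required for complete inhibition of growth.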
Key:
Experiment in all cases: growth of human tumour cells (NCI), 48 h
[1] = system: 786-0 renal
[2] = system: A498 renal
[3] = system: A549 NSCLC
[4] = system: ACHN renal
[5] = system: CAKI-1 renal
[6] = system: COLO 205 colon
[7] = system: HS 578T breast
[8] = system: HT29 colon
[9] = system: KM12 colon
[10] = system: LOX IMVI melanoma
[11] = system: MALME-3M melanoma
[12] = system: MDA-N
[13] = system: OVCAR-5 ovarian
[14] = system: SF-268 CNS
[15] = system: SF-295 CNS
[16] = system: SF-539 CNS
[17] = system: SK-MEL-5 melanoma
[18] = system: T-47D breast
[19] = system: TK-10 renal

| Structure (SMILES) | TGI [1] | TGI [2] | TGI [3] | TGI [4] | TGI [5] | TGI [6] | TGI [7] | TGI [8] | TGI [9] | TGI [10] | TGI [11] | TGI [12] | TGI [13] | TGI [14] | TGI [15] | TGI [16] | TGI [17] | TGI [18] | TGI [19] |
| --- | --- | --- | --- | --- | --- | --- | --- | --- | --- | --- | --- | --- | --- | --- | --- | --- | --- | --- | --- |
| CC(=O)OCC1OC(NC(=S)Nn2c(=O)[nH]c3ccccc3c2=O)C(OC(C)=O)C(OC(C)=O)C1OC(C)=O (centres undefined) | > 100 µM | > 100 µM | > 100 µM | > 100 µM | > 100 µM | > 100 µM | > 100 µM | > 100 µM | > 100 µM | > 100 µM | > 100 µM | > 100 µM | > 100 µM | > 100 µM | > 100 µM | > 100 µM | > 100 µM | > 100 µM |  |
| CC(C)C[C@H]1[C@@H](OCc2ccccc2)COS(=O)(=O)N1[C@H](C)c1ccccc1 | > 100 µM | > 100 µM | > 100 µM | > 100 µM | > 100 µM | > 100 µM | > 100 µM | > 100 µM | > 100 µM | > 100 µM | > 100 µM | > 100 µM | > 100 µM | > 100 µM | > 100 µM | > 100 µM | > 64.4 µM | 39.7 µM | > 100 µM |
| Cc1cc(S(=O)(=O)Nc2nc(N)nc(N3N=CCC3C)n2)c(SCC(=O)O)cc1Cl (centres undefined) | > 10 µM | > 10 µM | > 10 µM | > 10 µM | > 10 µM | > 10 µM | > 10 µM | > 10 µM | > 10 µM | > 10 µM | > 10 µM | > 10 µM | > 10 µM | > 10 µM | > 10 µM | > 10 µM | > 10 µM | > 10 µM | > 10 µM |
| COc1ccc(CNc2ccn(C3OC(CO)C(O)C3O)c(=O)n2)cc1 (centres undefined) | > 100 µM | > 100 µM | > 100 µM | > 100 µM | > 100 µM | > 100 µM | > 100 µM | > 100 µM | > 100 µM | > 100 µM | > 100 µM | > 100 µM | > 100 µM | > 100 µM | > 100 µM | > 100 µM | > 100 µM | 94.7 µM | > 100 µM |
| O=C(CC(O)(C(F)(F)F)C(F)(F)F)C(c1ccccc1)C(O)(C(F)(F)F)C(F)(F)F (centres undefined) | > 100 µM | > 100 µM | > 100 µM | 79.5 µM | > 100 µM | > 100 µM | 41.8 µM | > 100 µM | > 100 µM | > 100 µM | > 100 µM | > 100 µM | > 100 µM |  | > 100 µM | 94.1 µM | > 100 µM | > 100 µM | > 100 µM |
| CCCCCCCC(CC(=O)NC(CO)C(=O)NC(CO)CC(C)C)OC(=O)CC(CCCCCCC)OC(=O)CC(CCCCCCC)OC1OC(C)C(O)C(OC2OC(C)C(O)C(OC(C)=O)C2O)C1O (centres undefined) | 26.4 µM | 26.1 µM | 25 µM | 31.4 µM | 30.2 µM | 18.9 µM | 20.3 µM | 20.4 µM | 22.1 µM |  | 33.4 µM | 19.5 µM | 24 µM | 25.9 µM | 30.2 µM | 24.5 µM | 25.1 µM | 26.8 µM | 29.2 µM |
| C1C2CC3CC1CC(c1nn4c(C56CC7CC(CC(C7)C5)C6)nnc4s1)(C2)C3 | > 100 µM | > 100 µM | > 100 µM | > 100 µM | > 100 µM | > 100 µM | > 100 µM | > 100 µM | > 100 µM | > 100 µM | > 100 µM | > 100 µM | > 100 µM | > 100 µM | > 100 µM | > 100 µM | > 100 µM | > 100 µM | > 100 µM |
| Cn1c(-c2cccs2)cc(-c2cccs2)c1-c1cccs1 | > 100 µM | > 100 µM | > 100 µM | > 100 µM | > 100 µM | 34.1 µM | > 100 µM | > 100 µM | > 100 µM | > 100 µM | > 100 µM | > 100 µM | > 100 µM | > 100 µM | > 100 µM | > 100 µM | > 100 µM | > 51.8 µM | > 100 µM |
| Cc1ccc2c(c1)C(=O)C1(C2)Cc2c(C)cccc2C1=O (centres undefined) | > 100 µM | > 100 µM | > 100 µM | > 100 µM | > 100 µM | > 100 µM | > 100 µM | > 100 µM | > 100 µM | > 100 µM | > 100 µM | > 100 µM | > 100 µM | > 100 µM | > 100 µM | > 100 µM | > 100 µM | > 100 µM | > 100 µM |
| CC(=O)Nc1ccc(-c2nc3ccccc3s2)cc1Br | > 100 µM | 32.1 µM | > 100 µM | > 100 µM | > 88.1 µM | > 100 µM | 69.1 µM | > 100 µM | > 100 µM | > 100 µM | > 100 µM | > 100 µM |  | > 100 µM | > 100 µM | > 77.3 µM | > 100 µM | > 100 µM |  |
| CC(C)CCCC(C)[C@H]1CC[C@H]2n3c(nnc3-c3ccccc3)CCC[C@]12C (some centres undefined) | 34.8 µM | 31.8 µM | 28 µM |  | 29.7 µM | 14.8 µM | 43.3 µM | 60.5 µM | > 100 µM | 12.5 µM | 53.1 µM | 31 µM |  | 28.2 µM | 21.9 µM | 25.1 µM | 25.1 µM | 37.4 µM | 57.2 µM |
| NC(CSS(=O)(=O)O)=NC1CC2CCC1C2 (centres undefined) | > 100 µM | > 100 µM | > 100 µM | > 100 µM | > 100 µM | > 100 µM | > 100 µM |  | > 100 µM | > 100 µM | > 100 µM | > 100 µM |  | > 100 µM | > 100 µM | > 100 µM | > 100 µM | > 100 µM | > 100 µM |

Reference: PubChem BioAssay (NCI)
